{"source": "paper PMC11219860", "about": "“A chemogenetic approach for dopamine imaging with tunable sensitivity” (Nature Communications, 2024)", "key": {"[1]": {"molecular_target": "T1, msDRD2 (Mus musculus, UniProt P61168)", "T1 construct": "expressed in transfected cells; host or cells: HEK293T", "T1 sequence (P61168 whole entry)": "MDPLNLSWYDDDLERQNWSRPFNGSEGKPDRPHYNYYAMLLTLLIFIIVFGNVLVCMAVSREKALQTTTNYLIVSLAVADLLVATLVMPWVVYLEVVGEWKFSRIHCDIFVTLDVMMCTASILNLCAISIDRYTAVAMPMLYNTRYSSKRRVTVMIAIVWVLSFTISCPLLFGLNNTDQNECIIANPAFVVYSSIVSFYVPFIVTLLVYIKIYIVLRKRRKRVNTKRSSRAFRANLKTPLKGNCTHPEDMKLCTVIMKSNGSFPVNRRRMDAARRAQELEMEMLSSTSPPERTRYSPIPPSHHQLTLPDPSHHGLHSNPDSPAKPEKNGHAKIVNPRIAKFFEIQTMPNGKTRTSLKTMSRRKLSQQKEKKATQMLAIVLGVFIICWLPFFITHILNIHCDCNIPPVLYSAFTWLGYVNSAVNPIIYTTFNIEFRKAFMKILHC", "test": "NanoBit complementation assay of mini-Gi recruitment", "format": "cell-based", "method": "To measure the effect of DETQ on mini-G protein recruitment by different GPCRs we used a Nanoluciferase (NanoBit)-based complementation assay[26],[27]. For this HEK293T cells were seeded in six-well plates (Techno Plastic Products) at a density of 300,000 cells per well and co-transfected with plasmids encoding either hmDRD1, msDRD1, msDRD2, msDRD5, msADRA1a, msβ2AR or ms5HT6 carrying a C-terminally fused SmBiT, in combination with the corresponding mini-G protein probe[78] (mini-Gs: for DRD1, DRD5, β2AR, 5HT6R; mini-Gq: for ADRA1a; or mini-Gi: for DRD2), which were N-terminally fused to LgBiT, in a 1:1 DNA ratio using Effectene transfection reagent (Qiagen). […] The plate was incubated at 37 °C for 30 min, before the luminescence signal was measured at 37 °C using a Tecan Spark plate reader before and after the manual addition of 25 µl of either ligand solution (final concentrations ranging from 1 nM to 100 µM), pure Fluorobrite-DMEM or 25 µl of a DETQ solution (1 µM final concentration).\nFor in vitro luminescence assays, ligand traces were divided by buffer traces, the area under the curve for each trace was calculated using GraphPad Prism, values were normalized and fitted as dose response curve. […] The statistical significance was determined using Welch’s ANOVA followed by Dunnett’s multiple comparison test (comparison of ligand or vehicle to ligand). […]"}, "[2]": {"system": "dLight1.3b-expressing HEK293T sniffer cells on primary DArgic neurons", "test": "DA release imaging from cultured DArgic neurons with dLight1.3b sniffer cells", "format": "cell-based, mouse", "conditions": "DETQ 200 nM added to 4-AP perfusion", "method": "Primary DA (DA) neurons were grown on a layer of cortical astrocytes. The astrocytes were first prepared from P0-P2 C57BL6 mice, grown in T75 flask and then seeded on collagen/poly-L-lysine coated 15 mm glass coverslips at a concentration of 100,000 cells/ml. The cells were allowed to grow until close to confluence before the seeding of neurons. Primary DArgic neurons were prepared and cultured from P0-P2 mouse pups using a previously described protocol. Briefly, the ventral midbrain of P0-P2 pups was dissected from DAT^IREScre x Ai9 mice in which DA neurons expressed the red fluorescent protein tdTomato. These were produced by crossing DAT^IREScre mice (catalog #006660, Jackson Labs[31]) to Ai9/tdTomato mice (catalog #007905, Jackson Labs[32]). Both of these lines were on a C57BL/6 J background. Midbrain cells were seeded at a concentration of 240,000 cells/ml on top of the astrocyte monolayer and allowed to grow for 10 days (10 DIV). Two days before imaging, expression of dLight1.3b was induced in stable HEK cells with doxycycline. One day prior to imaging, HEK cells were lifted using trypsin, and 150,000 HEK cells were seeded on top of 10 DIV-cultured neurons in doxycycline-supplemented neuronal medium. Imaging was performed on a confocal microscope (Nikon A1 HD25) using a 40X dry objective and a 488 nm laser to excite dLight1.3b and a 546 nm laser to activate tdTomato and identify DA neurons. On the day of imaging, physiological saline containing drugs at the specified concentration ([…], Sigma; SCH23390, Sigma; DETQ, Enamine) were applied on the culture using a computer-controlled perfusion system (Automate system). A field containing one or more DA neurons was selected based on the tdTomato signal. […]\nEvent detection was performed using a thresholding algorithm adapted from[80]. In brief, the recorded field of view was divided into square ROIs of 55 um x 55 um size. […] A rolling standard deviation was calculated with the same window size. Events were defined as timepoints at which the fluorescence intensity reading exceeds the averaged intensity by 5 standard deviations."}, "[3]": {"system": "human DRD1 (hmDRD1)", "conditions": "cited from earlier work"}}, "data": [{"smiles": "C[C@H]1c2cccc(C(C)(C)O)c2C[C@H](CO)N1C(=O)Cc1c(Cl)cccc1Cl", "note": "[DETQ, 2-(2,6-dichlorophenyl)-1-((1S,3R)-3-(hydroxymethyl)-5-(2-hydroxypropan-2-yl)-1-methyl-3,4-dihydroisoquinolin-2(1H)-yl)ethan-1-one]", "values": [{"measurement": "agonist mode: direct agonist effect", "setting": "[1]; DETQ 1 µM alone", "result": "no direct agonist effect"}, {"measurement": "allosteric modulator mode: effect on agonist dose-response", "setting": "[1]; DETQ 1 µM, DA", "result": "No allosteric effect"}, {"measurement": "number of detected phasic DA release events", "setting": "[2]", "result": "increased"}, {"measurement": "sensor baseline signal (tonic DA)", "setting": "[2]", "result": "long-lasting increase"}, {"measurement": "Kb", "setting": "[3]", "result": 11.4, "unit": "nM"}, {"measurement": "maximal potentiation of dopamine", "setting": "[3]; human clones, ref Hao et al., 2019, Wang et al., 2018", "result": "75-85%"}, {"measurement": "in vitro potency as a D1PAM at the hD1 receptor", "setting": "[3]; ref Svensson et al., 2017, Hao et al., 2019", "result": 11, "unit": "nM"}]}]}
